US20250197799A1, “CELLS DERIVED FROM POLYPEDILUM VANDERPLANKI AND ODOR SENSOR EQUIPPED THEREWITH” (University of Maryland, College Park, priority 2022, published 2025)

What was measured:
Orco-Or47a [1] = biological target: T1, Orco-Or47a (Drosophila melanogaster, UniProt P81921+Q9VNB5); test: Exogenous membrane protein function before drying and after drying-rehydration, Orco-Or47a stable expression cell line; format: cell-based; parameters: remnant residues; expressed in transfected cells; host or cells: Pv11 cells (Polypedilum vanderplanki), CRIS-PITCh knock-in at the Pv.00443 locus downstream of the 121 promoter, Zeocin selection and single-cell sorting; conditions: before drying
T1 sequence (Q9VNB5 1-486): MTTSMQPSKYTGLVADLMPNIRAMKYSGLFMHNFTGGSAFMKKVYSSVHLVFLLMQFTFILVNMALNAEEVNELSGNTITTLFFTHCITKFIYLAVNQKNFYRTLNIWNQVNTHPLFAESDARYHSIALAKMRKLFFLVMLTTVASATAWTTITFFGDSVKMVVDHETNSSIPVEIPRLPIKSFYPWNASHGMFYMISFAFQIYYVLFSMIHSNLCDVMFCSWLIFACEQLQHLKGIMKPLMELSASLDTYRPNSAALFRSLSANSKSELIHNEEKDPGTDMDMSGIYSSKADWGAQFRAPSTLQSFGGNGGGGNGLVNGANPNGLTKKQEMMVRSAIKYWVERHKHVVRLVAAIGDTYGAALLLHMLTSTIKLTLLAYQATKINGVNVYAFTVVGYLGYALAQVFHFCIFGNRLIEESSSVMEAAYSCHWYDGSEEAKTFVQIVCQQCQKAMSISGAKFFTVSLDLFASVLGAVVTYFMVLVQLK
T1 sequence (P81921 1-385): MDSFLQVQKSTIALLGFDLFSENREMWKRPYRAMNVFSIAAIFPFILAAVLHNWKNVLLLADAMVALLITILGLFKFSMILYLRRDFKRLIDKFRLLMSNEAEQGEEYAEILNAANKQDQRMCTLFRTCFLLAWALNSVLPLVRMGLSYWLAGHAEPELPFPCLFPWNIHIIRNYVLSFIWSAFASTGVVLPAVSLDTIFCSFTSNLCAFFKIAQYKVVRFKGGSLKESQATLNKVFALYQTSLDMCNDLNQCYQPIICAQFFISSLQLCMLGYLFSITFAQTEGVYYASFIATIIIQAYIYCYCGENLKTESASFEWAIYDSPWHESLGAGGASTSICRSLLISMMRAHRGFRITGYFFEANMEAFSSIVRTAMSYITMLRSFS
Protocol: To assess the drought tolerance of the cell lines, the cells were dried according to the following protocol. 4×10^7 Pv11-GCaMP6f stable expression cell lines were centrifuged at 700 g for 3 minutes and the supernatant removed. The precipitated cells were suspended in a 600 mM trehalose mix of 600 mM trehalose and IPL-41 medium at a ratio of 9:1, transferred to a 2 ml flask, and incubated at 25° C. for 48 hours. After 48 hours, the obtained cells were centrifuged at 700 g for 3 minutes and the supernatant was removed. The sedimented cells were suspended in 400 μl of 600 mM trebalose mix, and 40 μl were dropped onto a 35 mm dish. The 35 mm dish was dried for 10 days under conditions of 25° C. and humidity of 10% or less.
6. Assessment of exogenous membrane protein function after drying-rehydration. Using the Orco stable expression cell line and Orco-Or47a stable expression cell line, in order to assess the function of exogenous membrane proteins before drying and after 1 hour of rehydration after drying, fluorescence intensity generated in response to stimulation with VUAA1 (Orco agonist) or pentyl acetate (ligand of Or47a) was measured in the same manner as in 3.2 above.
The fluorescence intensity was digitized from the photograph, and ΔF/F was calculated according to the following formula:
Where the summation Σi=1^n is over the n cells in the image, Fi,after means the fluorescence intensity of the cell i after adding the ligand solution, and Fi,0 means the fluorescence intensity of the cell i before adding the ligand solution.
Specifically, a fluorescence image was taken under the condition in which the excitation wavelength/fluorescence wavelength was 488 nm/525 nm. In the fluorescence intensity quantification, the cells were identified in the photographed image, and the fluorescence intensity (F) was measured for each time. The initial values of fluorescence intensity (F0) were subtracted from the measured fluorescence intensity at each time to obtain the amount of change in fluorescence (ΔF), which was then normalized by dividing by the initial value of fluorescence intensity (F0) to obtain (Δ F/F0). A number of cells n were selected from the captured image, ΔF/F0 were produced for each, and the average value (including standard deviation, SD) of the results was graphed. For example, 25 cells were selected from the captured image, ΔF/F0 for each were produced, and the averaged results (including SD) were graphed. […] The Orco-Or47a stable expression cell line before drying responded to the Orco agonist (VUAA1) and the specific ligand of Or47a, pentyl acetate.

Pv11 cells = conditions: previous study; cited from earlier work
Orco-Or47a [2] = test: Response after rehydration with cycloheximide treatment, Orco-Or47a stable expression cell line; format: cell-based, Drosophila melanogaster
Protocol: 7. Confirmation that exogenous membrane protein responses in Orco-Or47a stable expression cell lines immediately after rehydration are not due to de novo protein synthesis. To confirm that the membrane protein response of the Orco-Or47a stable expression cell line immediately after rehydration was not due to de novo protein synthesis, cells were treated with cycloheximide (CHX, a protein synthesis inhibitor).
A previous study reported that 0.35 mM of cycloheximide is able to inhibit protein production in Pv11 cells. Therefore, also in this experiment, cycloheximide was dissolved in IPL-41 medium so that the cycloheximide concentration was 0.35 mM. An IPL-41 medium with 0.01 mM, 0.07 mM and 0.7 mM cycloheximide was also prepared. […] One hour after rehydration and 24 hours after rehydration, the same operation as in 3.6 above was performed, and the fluorescence intensity was measured and analyzed. […] FIG. 7A and FIG. 7B are graphs showing changes in fluorescence intensity of the Orco-Or47a stable expression cell line response to VUAA1 and pentyl acetate, respectively, one hour after drying and rehydration. FIGS. 7C and 7D are graphs showing changes in fluorescence intensity, respectively, in response to VUAA1 and pentyl acetate of Orco-Or47a stable expression cell lines 24 hours after drying and rehydration.

[3] = system: GCaMP6f stable expression cell line; test: Functionality of GCaMP6f with ionomycin; format: cell-based, Polypedilum vanderplanki; conditions: ionomycin final concentration 1 μM, DMSO 1%; DMSO negative control showed no increase
Protocol: 3.2 The functionality of GCaMP6f. The functionality of GCaMP6f in the resulting cell lines was evaluated using Ionomycin (Ionomycin; Fujifilm Wako Pure Chemical) to increase the intracellular concentration of calcium ions to provide functional confirmation of exogenous proteins in the GCaMP6f stable-expressing cell line. Ionomycin was dissolved in dimethyl sulfoxide (DMSO; Fujifilm Wako Pure Chemical Industries, Ltd.), adjusted to a final DMSO concentration of 1% and an ionomycin final concentration of 1 μM in IP1-41 medium, and added to the cell solution. As a negative control, DMSO was adjusted to a final concentration of 1% in IP 1-41 medium and added to the cell solution. Bright-field images and fluorescence images (ex: 470/40 nm; em: 525/50 nm) of the cells before and after solution addition were taken (all-in-one fluorescence microscope BZ-X710, Keyence). […] Therefore, it was confirmed that the expressed GCaMP6f functioned in the obtained stable expression cell line. For statistical analysis of fluorescence intensity, one-way ANOVA was performed using Prism8 (GraphPad), followed by Tukey's multiple comparison test as a post-hoc test, […]

Compound: CC(=O)c1ccccc1 [acetophenone]
- response as change in fluorescence intensity (ΔF/F0) (Orco-Or47a [1]): did not react

Compound: C[C@@H]1C[C@@H]([C@H](O)CC2CC(=O)NC(=O)C2)C(=O)[C@@H](C)C1 [cycloheximide]
- concentration able to inhibit protein production (Pv11 cells): 0.35 mM
- effect of cycloheximide on function of the exogenous membrane protein (Orco-Or47a [2]; 1 hour after rehydration, cycloheximide 0.01, 0.07, 0.35, 0.7 mM, response to VUAA1 or pentyl acetate): no significant difference
- effect of CHX treatment on response (Orco-Or47a [2]; 24 hours after rehydration, response to VUAA1 and pentyl acetate): less responsive

Compound: C[C@H](CCC(=O)O)C[C@H](C)C[C@H](C)C(=O)/C=C(\O)[C@H](C)C[C@H](C)C/C=C/[C@@H](C)[C@@H](O)[C@@H](C)[C@@H](O)C[C@@H]1CC[C@@](C)([C@H]2CC[C@@](C)([C@@H](C)O)O2)O1 [ionomycin, Ionomycin]
- fluorescence after addition [3]: stronger fluorescence than before the addition
